65 molecules from the pKa sets of Baltruschat and Czodrowski (2020) can be followed below.

One may read the pKa as the negative logarithm of the acid dissociation constant. A higher pKa goes with a group that holds its proton tightly.

`CNC(=O)c1ncnc2nc[nH]c12`: the pKa (acidic group) was 8.9.
`CCC(C)(O)C(C(=O)O)c1ccc(-c2ccccc2)cc1` (configuration not stated) had a pKa (acidic group) of 3.41.
On to `[O-][n+]1cnc(NCc2ccccc2)c2nc[nH]c21`, for which the pKa is, setting by setting: (acidic group) 7.27; (basic group) 2.86.
Take `C1=C(c2nc3ccccc3o2)C2CCN1CC2`: the pKa (basic group) was 7.23.
`CCC(C)(C)C(=O)O` returned a pKa (acidic group) of 5.03.
Take `CC(O)CC(=O)O` (configuration not stated): the pKa (acidic group) worked out at 4.5.
In turn, `NC(Cc1c[nH]c2ccccc12)C(=O)[O-]` (configuration not stated) registered a pKa (basic group) of 9.44.
For the setting “basic group”, `Cc1ccc(N=C2C=CC(=N)C=C2)c(N)c1` showed a pKa of 4.2.
`CC(C)SC(C)C(=O)O` (configuration not stated) yielded a pKa (acidic group) of 3.78.
Molecule `CCOCCn1c(N2CCCN(CCCCn3cccn3)CC2)nc2ccccc21` gave a pKa (basic group) of 8.5.
On the same count and under the same terms, the result for `C[n+]1ccc(N)nc1[O-]` reads 4.52.
On to `Cc1cc(Cc2cc([N+](=O)[O-])ccc2O)cc(C)c1O`, for which the pKa (acidic group) worked out at 7.12.
In turn, `C[NH+](C)CC[SeH]` had a pKa (acidic group) of 4.74.
Still for that read-out and setting: the result for `COc1cccc2c1-c1c(O)cccc1-2` reads 9.15; that for `C[C@@H]1CC[C@H](C)[C@@H]1C(=O)O`, 5.4; that for `C[N+](C)(C)CCS`, 7.98.
Where the note is “acidic group”, `CC(C[Si](C)(C)CCCCl)C(=O)O` (configuration not stated) returned a pKa of 5.05.
Take `CCc1c(O)nn(-c2ccccc2)c1C`: the pKa (acidic group) was found to be 12.3.
In turn, `c1cnc2nc[nH]c2c1` returned a pKa (acidic group) of 11.1 and a pKa (basic group) of 3.95.
`c1cc(N2CCCCC2)ccc1N1CCCCC1` had a pKa (basic group) of 6.5.
Consider `Nc1cncnc1`, for which the pKa (basic group) came to 2.83.
The molecule `NCC#CC#CCCC(=O)[O-]` displayed a pKa (basic group) of 8.26.
Still for that read-out and setting: for `COc1cc2c(cc1OC)[C@]13CCN4CC5=CCO[C@H]6CC(=O)N2[C@H]1C6[C@@]5(S(=O)(=O)[O-])C[C@H]43` (some centres not stated) the value was 7.45; for `O=C([O-])c1cc2cc(Cn3ccnc3)ccc2s1`, 6.77; for `NC12CCC(CC1)C2`, 10.2.
The molecule `CSc1ncc2[nH]cnc2n1` had a pKa (acidic group) of 8.91 and a pKa (basic group) of 1.91.
Take `Cc1ccc2cccnc2c1`: the pKa (basic group) stood at 5.25.
For the setting “acidic group”, `C[NH+](C)Cc1cc(F)ccc1O` yielded a pKa of 8.12.
`CCc1ccnnc1C` registered a pKa (basic group) of 4.03.
As for `CNC(=N)N(C)C`, under “basic group”, the pKa turned out to be 13.6.
Consider `COC(=O)c1ccccc1O`, for which the pKa (acidic group) was found to be 10.3.
On to `CC(=O)C(C)[N+](=O)[O-]` (configuration not stated), for which, where the note is “acidic group”, the pKa turned out to be 5.15.
With `CN(C)CCCC(=O)Oc1ccccc1`, the pKa (basic group) was 9.7.
Consider `C=CCC1(C2C=CCCC2)C(=O)NC(=S)NC1=O` (configuration not stated), for which the pKa (acidic group) was 7.25.
Molecule `Cc1c(O)cccc1C(=O)O` yielded a pKa (acidic group) of 3.83.
The same measure, in the same setting: for `O=C(O)c1cc[n+](O)cc1` the value was -0.48.
`Oc1ccc(Nc2ccc(O)cc2)cc1` showed a pKa (acidic group) of 9.44.
The molecule `Cc1cnnc(C)c1` returned a pKa (basic group) of 4.11.
Molecule `Cc1nc2c(N)cccc2[nH]1` yielded a pKa (acidic group) of 12.3 and a pKa (basic group) of 8.1.
Molecule `COC(=O)C1=CCCNC1` had a pKa (basic group) of 8.7.
For `COc1csc(C(=O)O)c1`, the pKa (acidic group) worked out at 3.41.
The same measure, in the same setting: the result for `O=C(O)CNC(=O)CNS(=O)(=O)c1ccccc1` reads 3.55.
As for `CN(CCO)c1ccccc1`, the pKa (basic group) is 4.89.
In the case of `O=[N+]([O-])c1cccc2c[n+](CCO)ccc12`, the pKa (acidic group) stood at 11.7.
The molecule `Cc1ccc(C(=O)C[S+](C)C)cc1` registered a pKa (acidic group) of 8.9.
For `CN(C)CCC(=O)C(C)(C)C`, the pKa (basic group) was 9.49.
Take `CCOC(=O)COc1ccc(Cc2ccc(O)c(C[NH3+])c2)c(Cl)c1Cl`: where the note is “acidic group”, the pKa amounted to 8.73.
`Nc1ncnc2[nH]ncc12`: the pKa by setting is: (acidic group) 10.8; (basic group) 4.59.
`COc1cccc(OC)c1-c1nc2ncccc2[nH]1`: the pKa was 11.3 (acidic group) and 4.85 (basic group).
For `CCc1c(C)nnc(C)c1C`, the pKa (basic group) is 5.17.
In turn, `N#CC(C(=O)O)C1CCCCC1` (configuration not stated) gave a pKa (acidic group) of 2.37.
For the setting “acidic group”, `COc1cc([N+](=O)[O-])ccc1O` yielded a pKa of 6.83.
The same measure, in the same setting: the result for `CC1(C)OC(=O)CC(=O)O1` reads 5.15; that for `O=C([O-])CNS(=O)(=O)c1ccccc1`, 11.4; that for `CCc1c(-c2ccccc2)n[nH]c1O`, 7.8.
On to `CCOc1ccccc1C(=O)O`, for which, where the note is “acidic group”, the pKa stood at 4.18.
Same read-out and setting: for `O=C(O)[C@H]1C[C@@H]2CC[C@H]1C2` the value was 5.02.
With `CN(C)/C=N/c1ccccc1O`, the pKa is, setting by setting: (acidic group) 11; (basic group) 7.41.
In turn, `CCCOc1ccc(C(=O)O)cc1` gave a pKa (acidic group) of 4.63.
`OB(O)c1ccccc1` gave a pKa (acidic group) of 8.74.
Molecule `COC(=O)[C@H]1[C@@H]2Cc3c4[nH]c5ccccc5c4cc[n+]3C[C@H]2CC[C@H]1O` yielded a pKa (acidic group) of 10.7.
Same read-out and setting: for `C[n+]1ccccc1/C=C/c1ccc(O)cc1` the value was 8.4.
For `O=S1(=O)OC(c2cc(Br)c(O)c(Br)c2)(c2cc(Br)c(O)c(Br)c2)c2ccccc21`, the pKa (acidic group) was 4.2.
Consider `Cc1cc2cccc(C)c2nc1C`, for which the pKa (basic group) was 4.41.
Still for that read-out and setting: for `[O-]c1c(Cl)cc(Cl)cc1CN1CCCCC1` the value was 11.1.
